ChEMBL document CHEMBL1148797, “Structure-activity relationships in the binding of chemically derivatized CD4 to gp120 from human immunodeficiency virus” (J Med Chem, 2007)
pIC50: −log10 of the molar value.

Assay: Inhibition of wild type HIV YU2 gp120 to CD4 binding
Parameters: species or system Human immunodeficiency virus

Row | pIC50 | Structure (SMILES)
1 | 5.49 | CCN1C(=O)C=CC1=O [N-ETHYLMALEIMIDE]
2 | 5.45 | O=C(O)c1cc(SSc2ccc([N+](=O)[O-])c(C(=O)O)c2)ccc1[N+](=O)[O-]
